In patent US7122668B2, “Platinum complexes and their use in therapy” (priority 2002, dated 2006):
Where two headings read alike, the source gives them in different places.

Assays:
C-26 cells [1] = assay: Platinum complex intracellular accumulation (FAAS); assay type: cell-based, human; details: C-26, 24 hr
Procedure: (§1) Cells were seeded for 48 hr before one of the complexes was added to the culture medium. After 24 hr of exposure, the complexes were removed and the cells washed twice with ice-cold PBS and pelleted. The cells (1*10^6) were dried and mineralized by heating for 10 min in 65% HNO3 (BDH, England)^(22). Samples were dissolved in de-ionized water and each sample was measured at two different dilutions by flameless Zeeman atomic absorption spectrometer (FAAS). The calibration curves included 5 standards of K2PtCl4 stock solution with concentrations ranging from 50 to 250 ng platinum per ml. Platinum content was expressed as picomoles platinum per 1*10^6 cells.
(§2) The Pt content associated with the cells was measured by Atomic Absorption Spectroscopy (AAS).

OV-1063 cells [2] = assay: Platinum complex intracellular accumulation (FAAS); assay type: cell-based, human; details: OV-1063, 24 hr
Procedure: as §1, §2

plasmid pS16-hGH DNA = assay: Determination of Pt-DNA adducts by EtBr fluorescence; assay type: binding; details: DNA modified 24 hr
Procedure: A plasmid (4.8 kbp) containing a gene coding for human growth hormone, plasmid pS16-hGH, was prepared as previously described^(23). The freshly prepared DNA was analyzed by agarose gel (1%) electrophoresis using post-staining with SYBR Green I fluorescent dye (Molecular Probes, Eugene, Oreg.). […] The ratio of absorbance at 260 nm to that at 280 nm was always between 1.8 and 1.9.
DNA were modified by the platinum complexes in 10 mM NaClO4 (pH 7.0) at 37° C. in the dark for 24 hr. Measurements of EtBr fluorescence were performed on an LS50B luminescence spectrometer (Perkin Elmer, Norwalk, Conn.). Fluorescence measurements of DNA modified by platinum in the presence of EtBr were performed using the excitation wavelength of 546 nm (slit 10 run) and emission wavelength of 590 nm (slit 10 nm) at 25° C. The concentrations were 0.01 mg/ml for DNA and 0.04 mg/ml for EtBr, which corresponded to the saturation of all intercalation sites of EtBr in DNA.
EtBr, as the fluorescent probe, was used to distinguish between perturbations induced in DNA by adducts of platinum (II) compounds^(14). Binding of EtBr by intercalation is blocked in a stoichiometric manner by formation of the bifunctional adducts, as of Cis-Pt, which results in a loss of fluorescence intensity. On the other hand, formation of monofunctional adducts results only in a slight decrease of EtBr fluorescence.

[3] = test system: caspase-3 in OV-1063 cells; assay: EnzChek Caspase-3 assay; assay type: cell-based, human
Text: (§3) (2) By the EnzChektm Caspase-3 Assay Kit (Molecular probes, Eugene, Oreg.). This Kit allows the detection of apoptosis by assaying for increases in caspase-3 and other DEVD-specific protease activities (e.g., caspase-7). The basis for the assay is rodamine 110 bis-(N-CBZ-aspartil-L-glutarnyl-L-valyl-aspartic acid amide) (Z-DEVD-R110). This substrate is a bisamide derivative of rhodamine 110(R110) containing DEVD peptides covalently linked to each of R110's amino groups. Upon enzymatic cleavage, the non-fluorescent bisamide substrate converted to the fluorescent R110, which can be quantified by fluorescence microplate reader using excitation at 485±10 nm and emission detection at 535±10 nm.
(§4) (12) (5 μM and 7.5 μM, respectively) for 5 or 16 hr. Both “induced” and “control” cells were then harvested and lysed. Enzyme reactions were performed in 96-well plates with 50 μg of cytosolic proteins (55 minutes of incubation) and with a final concentration of 25 μM Z-DEVD-R110 substrate as described in the kit protocol.

C-26 cells [4] = assay: Determination of Pt-DNA adducts by FAAS; assay type: cell-based, human; details: for Pt-DNA adducts: C-26, 24 hr
Procedure: (§5) Cells were seeded for 48 hr before one of the drugs was added to the culture medium. After 24 hr of exposure, the complexes were removed and the cells washed twice with ice-cold PBS and pelleted. DNA from platinum-containing material (2*10^6 cells) was extracted from the cell pellet by QIAamp DNA Blood Kit (QIAGEN, Germany) according to the manufacture instructions. DNA yield was determined by measuring the concentration of DNA in the eluate by absorbance at 260 nm.

OV-1063 cells [5] = assay: Determination of Pt-DNA adducts by FAAS; assay type: cell-based, human; details: for Pt-DNA adducts: OV-1063, 24 hr
Procedure: as §5

CH1cisR = assay: Microculture tetrazolium (MTS) cell survival assay; assay type: cell-based; details: for IC50: 24 hours incubation, MTS; for resistance factor (IC50 resistant/IC50 sensitive): CH1cisR/CH1
Procedure: (§6) Cytotoxicity of the synthesized complexes was also tested by the MTS method^(21). Accordingly, the compounds were incubated for 24 hours with the corresponding cell lines and the cell survival in compound-treated cultures was evaluated.
(§7) The complexes were incubated for 24 hours with the above mentioned cell lines and the cell survival in compound-treated cultures was evaluated by the (microculture tetrazolium) MTS method as previously reported.

41McisR = assay: Microculture tetrazolium (MTS) cell survival assay; assay type: cell-based; details: for resistance factor (IC50 resistant/IC50 sensitive): 41McisR/41M; for IC50: 24 hours incubation, MTS
Procedure: as §6, §7

CH1 = assay: Microculture tetrazolium (MTS) cell survival assay; assay type: cell-based; details: 24 hours incubation
Procedure: as §6, §7

A2780 = assay: Microculture tetrazolium (MTS) cell survival assay; assay type: cell-based; details: 24 hours incubation
Procedure: as §6, §7

A2780cisR = assay: Microculture tetrazolium (MTS) cell survival assay; assay type: cell-based; details: for IC50: 24 hours incubation, MTS; for resistance factor (IC50 resistant/IC50 sensitive): A2780cisR/A2780
Procedure: as §6, §7

41M = assay: Microculture tetrazolium (MTS) cell survival assay; assay type: cell-based; details: 24 hours incubation
Procedure: as §6, §7

calf thymus DNA = assay: DNA binding (calf thymus DNA platination); details: for t1/2 half time of the binding to calf thymus DNA: 10 mM NaClO4, 37° C., ri = 0.08, differential pulse polarography; for ΔΔεmax, maximum of the positive CD band at around 275 nm: difference between control and platinated DNA
Procedure: The formation of calf thymus DNA platination was also examined. To this end, calf thymus DNA was incubated with different compounds (Table 3) in which the following parameters were determined: […]

C-26 colon carcinoma = assay: In vivo antitumor efficacy; set-up: species or system BALB/C mice; details: 5 mg/kg, three injections at weekly intervals from day 3 after i.p. tumor inoculation
Procedure: Female BALB/C mice (in the weight range of 17–20 g) were injected i.p. with 1*10^6 C-26 colon carcinomas.
Treatment began at day 3 after tumor inoculation and was repeated twice for a total of three injections at weekly intervals.
Female BALB/C mice (in the weight range of 17–20 gr) were injected i.p. with 1*10^6 C-26 colon carcinomas.
Treatment was as performed according to the schedule described above.

In vivo toxicity = assay: In vivo toxicity; set-up: species or system BALB/C mice; details: 5 mg/kg, i.v., three times at weekly intervals
[6] = cited from earlier work
caspase-3 in C-26 cells = assay: EnzChek Caspase-3 assay; assay type: cell-based, human; details: 4.5 μM complex, cisplatin 1.5 μM, 5 or 16 hrs
Text: as §3, §4

OV-1063 cells [7] = assay: Methylene blue (MB) assay of cell survival; assay type: cell-based, human; details: mean ± SD
Procedure: (§8) A human ovarian carcinoma cell line (OV-1063), established at the Hadassah University hospital and human colon carcinoma cell line (C-26) were maintained in RPMI-1640 medium supplemented with 10% FCS, antibiotics and glutamine. All culture medium components were purchased from Biological Industries (Beit-HaEmek, Israel). Both cell lines were maintained at 37° C. in a water-jacketed CO2 incubator.
(§9) Cytotoxicity of the synthesized complexes was tested by the methylene blue (MB) staining assay^(19). A fixed number of exponentially growing cells in 200 μl medium were plated in 96-microwell, flat-bottomed plates. For each of the complexes tested, 4 well were used. Following 24 hr in culture, 20 μl of different concentration of the complexes were added to each well containing untreated cells. Normal saline was added to the controls. Cells were exposed to complexes for 4, 24, or 72 hr. At the end of exposure for a fixed time interval, the treated cells as well as parallel control cells were washed and incubation was continued in fresh medium until termination of the experiment. Following 72 hr of growth, cells were fixed by adding 50 μl of 2.5% of glutaraldehyde to each well for 15 min. Fixed cells were rinsed 10 times with fresh de-ionized water and once with borate buffer (0.1 M, pH=8.5), dried and stained with MB (100 μl of 1% solution in 0.1 M borate buffer, pH=8.5) for 1 hr at room temperature. Stained cells were rinsed thoroughly with de-ionized water to remove any non-cell-bound die and then dried. The MB bound to the fixed cells was extracted by incubation at 37° C. with 200 μl of 0.1N HCl for 1 hr, and the net optical density (OD) of the die in each well was determined by a plate spectrophotometer (Labsystems Multyskan BICHROMATIC, Finland) at 620 nm.

C-26 cells [8] = assay type: cell-based; details: C-26 cells, mean ± SD
Procedure: as §8, §9

[9] = test system: Ubiquitin and Heart Myoglobin; details: 1:1 reaction, 1–2 mM, 10 mM phosphate buffer, pH 6.4, 37° C.
Procedure: Since most platinum(II) derivatives which are administered intravenously become protein bound within 24 hr, the binding kinetics of two model proteins, Ubiquitin (MW 8565) and Heart Myoglobin (MW 16951), to Pt complexes was determined. To this end, a 1:1 reaction between the platinum complexes and the proteins were carried out at 1–2 mM concentrations, in 10 mM phosphate buffer, pH 6.4 at 37° C. Protein binding kinetics were measured directly on the reaction mixtures, by Electrospray Ionization Mass Spectrometry (ESI-MS).

[10] = 4 h exposure, read-out: IC50, 4 h
[11] = 24 h exposure, read-out: IC50, 24 h
[12] = 72 h exposure, read-out: IC50, 72 h
[13] = listed as trans-[PtCl2(NH3)(pip)]
[14] = rb = 0.05, listed as trans-[PtCl2(NH3)(pip)]

Molecule | Penetration to cells (C-26 cells [1]) | Penetration to cells (OV-1063 cells [2]) | decrease of EtBr fluorescence intensity by DNA adducts (plasmid pS16-hGH DNA) | Pt-DNA adducts (C-26 cells [4]) | Pt-DNA adducts (OV-1063 cells [5]) | IC50 (CH1cisR) | resistance factor (IC50 resistant/IC50 sensitive) (CH1cisR) | resistance factor (IC50 resistant/IC50 sensitive) (41McisR) | IC50 (41McisR) | IC50 (CH1) | IC50 (A2780) | IC50 (A2780cisR) | resistance factor (IC50 resistant/IC50 sensitive) (A2780cisR) | IC50 (41M) | % IEC/adduct, frequency of interstrand crosslinks (calf thymus DNA) | unwinding angle per adduct (calf thymus DNA) | t1/2 half time of the binding to calf thymus DNA (calf thymus DNA) | ΔTm, 0.2 M (calf thymus DNA; rb = 0.05) | ΔΔεmax, maximum of the positive CD band at around 275 nm (calf thymus DNA; rb = 0.05) | Increase in life span (C-26 colon carcinoma) | further results
Trans-[PtCl2(4-picoline)(piperazine)].HCl [Complex 13] | 54461 pmol Pt/1 * 10^6 cells | 12307 pmol Pt/1 * 10^6 cells | considerable decrease in fluorescence | 297 pmol Pt/50 μg DNA | 205 pmol Pt/50 μg DNA | 42 ± 3 µM | 2.6 | 3.3 | 147 ± 10 µM | 16 ± 2 µM | 10 ± 3 µM | 24 ± 3 µM | 2.4 | 45 ± 3 µM | 6% | 17° | 12 min | −3.5 0.C | −0.30 |  | caspase-3 activation, increase in fluorescence vs untreated cells ([3]; 5 hr, 6.5 μM piperidine complex or 7.5 μM piperazine complex): ~2 fold; caspase-3 activation, increase in fluorescence vs untreated cells ([3]; 16 hr): 3 fold; DNA platination relative to Cis-Pt (C-26 cells [4]; C-26 cells): 7 fold; DNA platination relative to Cis-Pt (OV-1063 cells [5]; OV-1063 cells): 7 fold; ΔTm, 0.01M Na+ (calf thymus DNA): +4.7 0.C
C1CCN(C2CCNCC2)CC1.N.[Cl][Pt][Cl] [Complex 3, Trans-[PtCl2(NH3)(4-piperidino-piperidine)]] |  |  | The best adduct |  |  |  |  |  |  |  |  |  |  |  |  |  |  |  |  | 108% | Survival (C-26 colon carcinoma): 24 ± 3 days; toxicity (animal weight and survival) (In vivo toxicity): non-toxic
trans-[PtCl(PyAc—N,O)(NH3)] |  |  |  |  |  |  |  |  |  |  |  |  |  |  |  |  |  |  |  |  | solubility in water [6]: 4 to 5 mM
N.N.[Cl][Pt][Cl] [Cisplatin, cis-[PtCl2(NH3)2], reference compound] | 2244 pmol Pt/1 * 10^6 cells | 194 pmol Pt/1 * 10^6 cells |  | 149 pmol Pt/50 μg DNA | 107 pmol Pt/50 μg DNA | 23 µM | 3.8 | 4.1 | 107 µM | 6 µM | 2.2 µM | 38 µM | 17.3 | 26 µM | 6% | 13° | 100 min | −4.0 0.C | 1.27 | 108% | Survival (C-26 colon carcinoma): 24 ± 5 days; caspase-3 fluorescent signal (caspase-3 in C-26 cells): No fluorescent signal; caspase-3 fluorescent signal ([3]; cisplatin 2 μM, 5 or 16 hrs): No fluorescent signal; IC50 (OV-1063 cells [7]; [10]): 2 ± 0.5 µM; IC50 (OV-1063 cells [7]; [11]): 0.7 ± 0.2 µM; IC50 (OV-1063 cells [7]; [12]): 0.5 ± 0.2 µM; IC50 (C-26 cells [8]; [10]): 1.5 ± 1.3 µM; IC50 (C-26 cells [8]; [11]): 0.6 ± 0.1 µM; IC50 (C-26 cells [8]; [12]): 0.2 ± 0.2 µM; ΔTm, 0.01M Na+ (calf thymus DNA; rb = 0.05, 0.01M Na+): −2.6 0.C
C1CCNCC1.N.[Cl][Pt][Cl] [Complex 1, Trans-[PtCl2(NH3)(piperidine)]] |  |  |  |  |  |  |  |  |  |  |  |  |  |  |  |  |  |  |  |  | binding to the proteins [9]: binds rapidly; % IEC/adduct, frequency of interstrand crosslinks (calf thymus DNA; [13]): 26%; unwinding angle per adduct (calf thymus DNA; [13]): 52.8°; ΔTm, 0.01M Na+ (calf thymus DNA; rb = 0.05, 0.01M Na+, listed as trans-[PtCl2(NH3)(pip)]): +7.6 0.C; ΔTm, 0.2 M (calf thymus DNA; [14]): −1.9 0.C; ΔΔεmax, maximum of the positive CD band at around 275 nm (calf thymus DNA; [14]): 0.15
